Data published in PubChem BioAssay (NCI).
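GI50 = concentration required for 50% inhibition of growth. TGI: total growth inhibition.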

What was measured:
Assay in all cases: DTP human tumour cell line panel, 384-well format; in the data active = GI50 below about 0.43 µM; inactive = the rest
[1] = system: NCI-H322M lung
[2] = system: IGROV1 ovarian
[3] = system: KM12 colon
[4] = system: SNB-75 CNS
[5] = system: HT29 colon
[6] = system: SF-295 CNS
[7] = system: OVCAR-8 ovarian
[8] = system: RXF 393 renal
[9] = system: LOX IMVI melanoma
[10] = system: MALME-3M melanoma
[11] = system: TK-10 renal
[12] = system: HS 578T breast
[13] = system: OVCAR-4 ovarian
[14] = system: COLO 205 colon
[15] = system: SK-OV-3 ovarian
[16] = system: MCF7 breast
[17] = system: CAKI-1 renal
[18] = system: SNB-19 CNS
[19] = system: EKVX NSCLC
[20] = system: RPMI-8226 leukemia
[21] = system: DU-145 prostate
[22] = system: PC-3 prostate
[23] = system: M14 melanoma
[24] = system: A549 NSCLC
[25] = system: HCT-15 colon
[26] = system: HOP-62 NSCLC
[27] = system: NCI-H522 lung
[28] = system: MDA-MB-435 melanoma
[29] = system: A498 renal
[30] = system: OVCAR-3 ovarian
[31] = system: HCC-2998 colon
[32] = system: NCI-H460 NSCLC
[33] = system: BT-549 breast
[34] = system: U251 glioblastoma
[35] = system: UACC-62 melanoma
[36] = system: SN12C renal
[37] = system: OVCAR-5 ovarian
[38] = system: MDA-MB-231 breast
[39] = system: HOP-92 NSCLC
[40] = system: SF-539 CNS
[41] = system: SR leukemia
[42] = system: ACHN renal
[43] = system: NCI-H226 lung
[44] = system: MDA-MB-468 breast
[45] = system: SK-MEL-5 melanoma
[46] = system: MOLT-4 leukemia
[47] = system: SF-268 CNS
[48] = system: NCI/ADR-RES ovarian
[49] = system: UACC-257 melanoma
[50] = system: SK-MEL-28 melanoma
[51] = system: NCI-H23 lung
[52] = system: T-47D breast
[53] = system: HCT-116 colon
[54] = system: HL-60(TB) leukemia
[55] = system: UO-31 renal
[56] = system: K-562 leukemia
[57] = system: SK-MEL-2 melanoma
[58] = system: 786-0 renal
[59] = system: SW-620 colon

NC(=O)c1ccc(N(C(N)=O)c2c(F)cccc2F)nc1-c1ccc(F)cc1F
inactive: GI50 [1] > 100000 nM | GI50 [2] > 100000 nM | GI50 [3] > 100000 nM | GI50 [4] > 100000 nM | GI50 [5] > 100 µM | GI50 [6] > 100 µM | GI50 [7] > 100 µM | GI50 [8] > 100000 nM | GI50 [9] > 100 µM | GI50 [10] > 100 µM | GI50 [11] > 100000 nM | GI50 [12] > 100 µM | GI50 [13] > 100 µM | GI50 [14] > 100 µM | GI50 [15] > 100 µM | GI50 [16] > 100 µM | GI50 [17] > 100000 nM | GI50 [18] > 100 µM | GI50 [19] > 100000 nM | GI50 [20] > 100 µM | GI50 [21] > 100000 nM | GI50 [22] > 100 µM | GI50 [23] > 100 µM | GI50 [24] > 100000 nM | GI50 [25] > 100 µM | GI50 [26] > 100000 nM | GI50 [27] > 100 µM | GI50 [28] > 100 µM | GI50 [29] > 100000 nM | GI50 [30] > 100 µM | GI50 [31] > 100 µM | GI50 [32] > 100000 nM | GI50 [33] > 100 µM | GI50 [34] > 100000 nM | GI50 [35] > 100 µM | GI50 [36] > 100000 nM | GI50 [37] > 100 µM | GI50 [38] > 100000 nM | GI50 [39] > 100000 nM | GI50 [40] > 100000 nM | GI50 [41] 98.2 µM | GI50 [42] > 100 µM | GI50 [43] > 100000 nM | GI50 [44] > 100000 nM | GI50 [45] > 100 µM | GI50 [46] > 100 µM | GI50 [47] > 100 µM | GI50 [48] > 100 µM | GI50 [49] > 100 µM | GI50 [50] > 100 µM | GI50 [51] > 100 µM | GI50 [52] > 100 µM | GI50 [53] > 100000 nM | GI50 [54] > 100 µM
> 100000 nM: TGI [14] | TGI [23] | TGI [35] | TGI [39] | TGI [50] | TGI [51] | TGI [53]
> 100 µM: TGI [1] | TGI [2] | TGI [3] | TGI [4] | TGI [5] | TGI [6] | TGI [7] | TGI [8] | TGI [9] | TGI [10] | TGI [11] | TGI [12] | TGI [13] | TGI [15] | TGI [16] | TGI [17] | TGI [18] | TGI [19] | TGI [20] | TGI [21] | TGI [22] | TGI [24] | TGI [25] | TGI [26] | TGI [27] | TGI [28] | TGI [29] | TGI [30] | TGI [31] | TGI [32] | TGI [33] | TGI [34] | TGI [36] | TGI [37] | TGI [38] | TGI [40] | TGI [41] | TGI [42] | TGI [43] | TGI [44] | TGI [45] | TGI [46] | TGI [47] | TGI [48] | TGI [49] | TGI [52] | TGI [54]

O=C(NOCCO)c1cc(CN2OCCCC2=O)c(F)c(F)c1Nc1ccc(I)cc1F
10.9 µM: TGI [24]
14.9 µM: TGI [19]
25.5 µM: TGI [7]
13.8 µM: TGI [44]
24.9 µM: TGI [17]
55.4 µM: TGI [15]
72.1 µM: TGI [33]
1280 nM: TGI [53]
51.9 µM: TGI [32]
11.9 nM: TGI [23]
7.61 µM: TGI [8]
23.4 µM: TGI [29]
86.9 nM: TGI [35]
39.6 µM: TGI [30]
17.8 µM: TGI [34]
23.8 µM: TGI [12]
7.38 µM: TGI [43]
11.5 nM: TGI [50]
17.7 µM: TGI [4]
> 100 µM: TGI [3] | TGI [13] | TGI [21] | TGI [22] | TGI [25] | TGI [28] | TGI [36] | TGI [37] | TGI [38] | TGI [42] | TGI [47] | TGI [59]
< 0.01 µM: TGI [10] | TGI [49]
active: GI50 [55] 133 nM | GI50 [1] 73.7 nM | GI50 [2] 17.9 nM | GI50 [5] < 0.01 µM | GI50 [10] < 0.01 µM | GI50 [11] 198 nM | GI50 [14] < 0.01 µM | GI50 [17] 59 nM | GI50 [19] 201 nM | GI50 [56] 27.6 nM | GI50 [23] < 0.01 µM | GI50 [24] 53.5 nM | GI50 [26] 25.1 nM | GI50 [57] < 10 nM | GI50 [28] < 0.01 µM | GI50 [29] 236 nM | GI50 [32] 23.6 nM | GI50 [34] 209 nM | GI50 [35] < 0.01 µM | GI50 [37] < 0.01 µM | GI50 [38] 60.1 nM | GI50 [39] 179 nM | GI50 [43] 42.1 nM | GI50 [45] < 0.01 µM | GI50 [49] < 0.01 µM | GI50 [50] < 0.01 µM | GI50 [51] < 0.01 µM | GI50 [59] < 10 nM | GI50 [53] 18 nM | GI50 [54] < 0.01 µM
7.87 µM: TGI [2]
1720 nM: TGI [39]
4.03 µM: TGI [40]
27 nM: TGI [14]
20.8 µM: TGI [5]
371 nM: TGI [51]
4.19 µM: TGI [1]
19 nM: TGI [57]
35.6 µM: TGI [16]
11.1 µM: TGI [41]
17 µM: TGI [56]
64.6 µM: TGI [26]
10.6 µM: TGI [54]
42 µM: TGI [58]
17.5 µM: TGI [45]
inactive: GI50 [3] 1710 nM | GI50 [4] 2850 nM | GI50 [6] 11.2 µM | GI50 [7] 4.6 µM | GI50 [8] 498 nM | GI50 [12] 3.48 µM | GI50 [13] 17.4 µM | GI50 [15] 8.12 µM | GI50 [16] 5.12 µM | GI50 [18] 12.7 µM | GI50 [21] 1410 nM | GI50 [22] 34.4 µM | GI50 [25] 5.87 µM | GI50 [27] 5.97 µM | GI50 [30] 10.2 µM | GI50 [33] 6.65 µM | GI50 [36] 1280 nM | GI50 [58] 11.6 µM | GI50 [40] 554 nM | GI50 [41] 2.12 µM | GI50 [42] 3.48 µM | GI50 [44] 2560 nM | GI50 [46] 7.81 µM | GI50 [47] 24.8 µM | GI50 [52] 21.5 µM
30.2 µM: TGI [27]
44.7 µM: TGI [11]
2130 nM: TGI [55]
20.6 µM: TGI [46]
41.1 µM: TGI [6]
62.8 µM: TGI [18]
65.2 µM: TGI [52]
